# Source: patent EP2468718A1, “Cabanillasin, a new antifungal compound, produced by entomopathogenic xenorhabdus cabanillasii” (Nosopharm, priority 2010, dated 2012)
# Where two headings read alike, the source gives them in different places.
# What was measured:
# [1] = test system: Cryptococcus neoformans clinical strain; assay: Antifungal susceptibility testing, NCCLS M27-A2 broth microdilution (yeasts); assay type: cell-based; settings: read-out: % of growth inhibition
# Experimental: (§1) Cabanillasin activity was tested against different fungal human pathogens: ascomycetes yeasts (Candida albicans ATCC 90029, Candida Glabrata ATCC 90030, Candida krusei ATCC 6258 and Candida lusitaniae CBS 6936), basidiomycetes yeasts (Cryptococcus neoformans clinical strain), ascomycetes filamentous fungi (Aspergilus fumigatus clinical strain, Fusarium oxysporum clinical strain) and zygomycetes filamentous fungi (Rhizopus oryzae environemental strain) by the M38-A microdilution method with RPMI 1640 medium (RPMI 1640, MOPS 160 mM, glucose 18 g/L, pH 7) as recommended in the […]. The NCCLS M27-A2 broth microdilution method (NCCLS) was used when yeasts were tested.
# (§2) Yeasts and filamentous inoculi were prepared on YPD medium (yeast extract 10 g/L, peptone 10 g/L and glucose 20 g/L) and Malt medium (malt extract 20 g/L) respectively. The densities of inoculi were adjusted by dilution in RPMI 1640 broth to a value ranged from 5.10^2 to 5.10^3 CFU/mL for yeasts isolates and 5.10^3 to 5.10^4 CFU/mL for filamentous fungi. Microdilution trays (96 U-bottom shaped) containing 190 µL fungal inoculum were added with 10 µL Cabanillasin solution (final concentration ranging from 50 to 0.098 mg/L for all fungi). After inoculation of the trays, all microdilution trays were incubated at 35°C in ambient air. The culture absorbance was measured at 600 nm, 24 h and 48 h after the beginning of the experiments for the yeasts and 48 h and 72 h after the beginning of the experiments for filamentous fungi and Cryptococcus neoformans. The activity results correspond to a percentage of growth inhibition ((1-Abs600 nm culture with Cabanillasin)/ Abs600 nm culture without Cabanillasin) x 100.
# (§3) The IC50 value is the concentration at which inhibition of growth is equal to 50%. MICs for Candida species were determined at 24 h and 48 h and corresponded to 100% of growth inhibition. Amphotericin B was provided as standard (final concentration ranging from 16 to 0.03 mg/L for all fungi). Experiments were done in duplicate.
# [2] = test system: Candida lusitaniae CBS 6936; assay: as above; assay type: cell-based; settings: Clavispora lusitaniae, CBS6936, read-out: % of growth inhibition
# Experimental: as §1, §2, §3
# [3] = test system: Aspergilus fumigatus clinical strain; assay: Antifungal susceptibility testing, M38-A microdilution method (filamentous fungi); assay type: cell-based, Aspergillus fumigatus; settings: Aspergillus fumigatus, read-out: % of growth inhibition
# Experimental: as §1, §2, §3
smiles,measurement,setting,value
"C[C@@H]1[C@H](O)[C@@H](C)/C=C/C=C/C=C/C=C/C=C/C=C/C=C/[C@H](O[C@@H]2O[C@H](C)[C@@H](O)[C@H](N)[C@@H]2O)C[C@@H]2O[C@](O)(C[C@@H](O)C[C@@H](O)[C@H](O)CC[C@@H](O)C[C@@H](O)CC(=O)O[C@H]1C)C[C@H](O)[C@H]2C(=O)O [Amphotericin B, reference compound]",inhibition at 0.03 µg/mL,[1]; 48 h incubation,17%
same,inhibition at 0.03 µg/mL,[1]; 72 h incubation,0%
same,inhibition at 0.06 µg/mL,[1]; 48 h incubation,32%
same,inhibition at 0.06 µg/mL,[1]; 72 h incubation,5%
same,inhibition at 0.12 µg/mL,[1]; 48 h incubation,70%
same,inhibition at 0.12 µg/mL,[1]; 72 h incubation,44%
same,inhibition at 0.25 µg/mL,[1]; 48 h incubation,100%
same,inhibition at 0.25 µg/mL,[1]; 72 h incubation,81.5%
same,inhibition at 0.5 µg/mL,[1]; 48 h incubation,100%
same,inhibition at 0.5 µg/mL,[1]; 72 h incubation,100%
same,inhibition at 1 µg/mL,[1]; 48 h incubation,100%
same,inhibition at 1 µg/mL,[1]; 72 h incubation,100%
same,inhibition at 2 µg/mL,[1]; 48 h incubation,100%
same,inhibition at 2 µg/mL,[1]; 72 h incubation,100%
same,inhibition at 4 µg/mL,[1]; 48 h incubation,100%
same,inhibition at 4 µg/mL,[1]; 72 h incubation,100%
same,inhibition at 8 µg/mL,[1]; 48 h incubation,100%
same,inhibition at 8 µg/mL,[1]; 72 h incubation,100%
same,inhibition at 16 µg/mL,[1]; 48 h incubation,100%
same,inhibition at 16 µg/mL,[1]; 72 h incubation,100%
same,inhibition at 0.03 µg/mL,[2]; 24 h incubation,19%
same,inhibition at 0.03 µg/mL,[2]; 48 h incubation,11.2%
same,inhibition at 0.06 µg/mL,[2]; 24 h incubation,63%
same,inhibition at 0.06 µg/mL,[2]; 48 h incubation,45.4%
same,inhibition at 0.12 µg/mL,[2]; 24 h incubation,100%
same,inhibition at 0.12 µg/mL,[2]; 48 h incubation,84.5%
same,inhibition at 0.25 µg/mL,[2]; 24 h incubation,100%
same,inhibition at 0.25 µg/mL,[2]; 48 h incubation,100%
same,inhibition at 0.5 µg/mL,[2]; 24 h incubation,100%
same,inhibition at 0.5 µg/mL,[2]; 48 h incubation,100%
same,inhibition at 1 µg/mL,[2]; 24 h incubation,100%
same,inhibition at 1 µg/mL,[2]; 48 h incubation,100%
same,inhibition at 2 µg/mL,[2]; 24 h incubation,100%
same,inhibition at 2 µg/mL,[2]; 48 h incubation,100%
same,inhibition at 4 µg/mL,[2]; 24 h incubation,100%
same,inhibition at 4 µg/mL,[2]; 48 h incubation,100%
same,inhibition at 8 µg/mL,[2]; 24 h incubation,100%
same,inhibition at 8 µg/mL,[2]; 48 h incubation,100%
same,inhibition at 16 µg/mL,[2]; 24 h incubation,100%
same,inhibition at 16 µg/mL,[2]; 48 h incubation,100%
same,inhibition at 0.03 µg/mL,[3]; 48 h incubation,3%
same,inhibition at 0.03 µg/mL,[3]; 72 h incubation,0%
same,inhibition at 0.06 µg/mL,[3]; 48 h incubation,33.5%
same,inhibition at 0.06 µg/mL,[3]; 72 h incubation,0%
same,inhibition at 0.12 µg/mL,[3]; 48 h incubation,37.2%
same,inhibition at 0.12 µg/mL,[3]; 72 h incubation,41.5%
same,inhibition at 0.25 µg/mL,[3]; 48 h incubation,100%
same,inhibition at 0.25 µg/mL,[3]; 72 h incubation,85.2%
same,inhibition at 0.5 µg/mL,[3]; 48 h incubation,100%
same,inhibition at 0.5 µg/mL,[3]; 72 h incubation,100%
same,inhibition at 1 µg/mL,[3]; 48 h incubation,100%
same,inhibition at 1 µg/mL,[3]; 72 h incubation,100%
same,inhibition at 2 µg/mL,[3]; 48 h incubation,100%
same,inhibition at 2 µg/mL,[3]; 72 h incubation,100%
same,inhibition at 4 µg/mL,[3]; 48 h incubation,100%
same,inhibition at 4 µg/mL,[3]; 72 h incubation,100%
same,inhibition at 8 µg/mL,[3]; 48 h incubation,100%
same,inhibition at 8 µg/mL,[3]; 72 h incubation,100%
same,inhibition at 16 µg/mL,[3]; 48 h incubation,100%
same,inhibition at 16 µg/mL,[3]; 72 h incubation,100%
